Measurements as given in patent US6596718B1, “7-Morpholin-4yl-benzothiazole amide derivatives” (Hoffmann-La Roche Inc., priority 2001, dated 2003).

SMILES	melting point
COc1ccc(N2CCOCC2)c2sc(C(=O)NCC3(c4ccccc4)CCOCC3)nc12 [Example 30, 4-Methoxy-7-morpholin-4-yl-benzothiazole-2-carboxylic acid (4-phenyl-tetrahydro-pyran-4-ylmethyl)-amide]	144 to 148 °C
COc1ccc(N2CCOCC2)c2sc(C(=O)NC(c3ccccc3)c3ccccn3)nc12 (stereo not drawn) [Example 67, 4-Methoxy-7-morpholin-4-yl-benzothiazole-2-carboxylic acid (phenyl-pyridin-2-yl-methyl)-amide]	219 to 221 °C
COc1ccc(N2CCOCC2)c2sc(C(=O)NCCN3Cc4ccccc4C3=O)nc12 [Example 29, 4-Methoxy-7-morpholin-4-yl benzothiazole-2-carboxylic acid [2-(1-oxo-1,3-dihydro-isoindol-2-yl)-ethyl]-amide]	199 to 205 °C
COc1ccc(N2CCOCC2)c2sc(C(=O)NCCSc3nnc(N)s3)nc12 [Example 83, 4-Methoxy-7-morpholin-4-yl-benzothiazole-2-carboxylic acid [2-(5-amino-[1,3,4]thiadiazol-2-ylsulfanyl)-ethyl]-amide]	237 to 239 °C
COc1ccc(N2CCOCC2)c2sc(C(=O)NCCc3cccc(C(F)(F)F)c3)nc12 [Example 60]	106 to 108 °C
COc1ccc(N2CCOCC2)c2sc(C(=O)NCC3CCCCC3)nc12 [Example 35, 4-Methoxy-7-morpholin-4-yl-benzothiazole-2-carboxylic acid cyclohexylmethyl-amide]	150 to 151 °C

More lines, now with the values ahead:

melting point	SMILES
164 to 168 °C	COc1ccc(CNC(=O)c2nc3c(OC)ccc(N4CCOCC4)c3s2)cc1 [Example 26, 4-Methoxy-7-morpholin-4-yl-benzothiazole-2-carboxylic acid 4-methoxy-benzylamide]
147 °C	COc1ccc(N2CCOCC2)c2sc(C(=O)NCCCc3ccccc3)nc12 [Example 40, 4-Methoxy-7-morpholin-4-yl-benzothiazole-2-carboxylic acid (3-phenyl-propyl)-amide]
152 to 155 °C	COc1ccc(N2CCOCC2)c2sc(C(=O)NCC3Cc4ccccc4C(=O)N3)nc12 (stereo not drawn) [Example 36, 4-Methoxy-7-morpholin-4-yl-benzothiazole-2-carboxylic acid (1-oxo-1,2,3,4-tetrahydro-isoquinolin-3-ylmethyl)-amide]
160 °C	COc1cccc(NC(=O)c2nc3c(OC)ccc(N4CCOCC4)c3s2)c1 [Example 11, 4-Methoxy-7-morpholin-4-yl-benzothiazole-2-carboxylic acid (3-methoxy-phenyl)-amide]
156 to 158 °C	COc1ccc(N2CCOCC2)c2sc(C(=O)NCc3ccccc3)nc12 [Example 3, 4-Methoxy-7-morpholin-4-yl-benzothiazole-2-carboxylic Acid Benzylamide]
191 °C	COc1ccccc1NC(=O)c1nc2c(OC)ccc(N3CCOCC3)c2s1 [Example 12, 4-Methoxy-7-morpholin-4-yl-benzothiazole-2-carboxylic acid (2-methoxy-phenyl)-amide]
177 to 181 °C	COc1ccc(N2CCOCC2)c2sc(C(=O)Nc3ccccn3)nc12 [Example 19, 4-Methoxy-7-morpholin-4-yl-benzothiazole-2-carboxylic acid pyridin-2-ylamide]
151 to 153 °C	COc1ccc(N2CCOCC2)c2sc(C(=O)NCCc3ccccc3F)nc12 [Example 58, 4-Methoxy-7-morpholin-4-yl-benzothiazole-2-carboxylic acid [2-(2-fluoro-phenyl)-ethyl]-amide]
144 to 146 °C	COc1ccc(N2CCOCC2)c2sc(C(=O)NC(C)Cc3cc4ccccc4o3)nc12 (stereo not drawn) [Example 84, 4-Methoxy-7-morpholin-4-yl-benzothiazole-2-carboxylic acid (2-benzofuran-2-yl-1-methyl-ethyl)-amide]
